Several values for one entry are separate records, joined by “and”; a condition that tells them apart may be missing. Equal entries are not always repeated. Where two headings read alike, the source gives them in different places. Marks after values point to notes of the source that are not given here.
What was measured:
normal human melanocytes [1] = experiment: Melanomodulating effect: intracellular melanine/proteins ratio in normal human melanocytes in monolayer culture (72 h); type: cell-based
Source text: The search of a “melanomodulating” effect has been performed in two steps: • melanomodulating effect of the active ingredients taken separately at predetermined concentrations in the cytotoxicity tests. • Melanomodulating effect of the complex, i.e. GABA in admixture with the other ingredients, white mulberry, lemon and lactic acid.
These tests have been performed on a model of normal human melanocytes cultured on monolayer cultures.
Gamma aminobutyric acid, lemon extract and white mulberry extract have been solubilized and directly diluted in the culture medium.
In this method the ratio melanine/proteins is determined as a percentage of the controls.
The effect of a complex containing the active ingredients A (gamma aminobutyric acid), C, D and lactic acid (composition E) has also been evaluated as a comparating element, on the synthesis of melanine in a model of normal human melanocytes cultured in a monolayer culture.
The tested compositions have therafter been directly diluted in the incubation medium for the melanocytes at a concentration of 0.1, 0.5 and 1% (v/v).
Normal human melanocytes have been utilized stemming from a young patient. They have been cultured in a monolayer culture until of a confluence of 80%.
1—Dosage of Melanine: • at the end of the incubation period, the intra cellular content of melanine has been quantified after cellular lysis, using a spectrophotometric measure at 405 nm.
2—Dosage of the Proteins: • at the end of incubation period the proteins contained in the cellular lysates have been determined using a spectrocolometric method based on Coomassie Blue according to the method of Bradford M. (Anal. Biochem. 72 (1976) 248-254).

tyrosinase = target: T1, tyrosinase (Homo sapiens, UniProt P14679); experiment: Inhibiting activity on tyrosinase in cultures of normal human melanocytes; type: cell-based
T1 construct: cultures of normal human melanocytes; endogenous in cells; host or cells: normal human melanocytes
Source text: Gamma aminobutyric acid as well as its salts and derivatives used in such compositions has been studied on isolated cells and namely on cultures of normal human melanocytes. […] The obtained results are a function of the doses what is in favour of a specific effect of gamma-aminobutyric acid on this kind of parameters.

normal human melanocytes [2] = conditions: for Dose from which a cytotoxic effect is detected (less than 80% of the viable cells still present) / Percentage of viability (vs controls), Mean: human, 72 h
Experimental: The determination is performed with normal human melanocytes obtained from a young patient. For the performance of the tests, the cells have been cultured until obtention of confluent mono-layers.
As a comparison one has prepared a 10% solution of kojic acid and a 30% solution of lactic acid (composition E).
The tested preparations have been then directly diluted in the incubation medium for the melanocytes.
At the end of the incubation period, the viability of the cells has been evaluated using a spectrophotometric method for dosing the activity of the intracellular phosphatases. According to the method of Yan T. et al. (Anal. Biochem. 24 (1996) 103-108), one doses the p-nitrophenol resulting from the conversion of the phosphate of p-nitrophenol by means of the intracellular phophatases of the viable cells present in the wall of culture.

T1 sequence (P14679 19-529): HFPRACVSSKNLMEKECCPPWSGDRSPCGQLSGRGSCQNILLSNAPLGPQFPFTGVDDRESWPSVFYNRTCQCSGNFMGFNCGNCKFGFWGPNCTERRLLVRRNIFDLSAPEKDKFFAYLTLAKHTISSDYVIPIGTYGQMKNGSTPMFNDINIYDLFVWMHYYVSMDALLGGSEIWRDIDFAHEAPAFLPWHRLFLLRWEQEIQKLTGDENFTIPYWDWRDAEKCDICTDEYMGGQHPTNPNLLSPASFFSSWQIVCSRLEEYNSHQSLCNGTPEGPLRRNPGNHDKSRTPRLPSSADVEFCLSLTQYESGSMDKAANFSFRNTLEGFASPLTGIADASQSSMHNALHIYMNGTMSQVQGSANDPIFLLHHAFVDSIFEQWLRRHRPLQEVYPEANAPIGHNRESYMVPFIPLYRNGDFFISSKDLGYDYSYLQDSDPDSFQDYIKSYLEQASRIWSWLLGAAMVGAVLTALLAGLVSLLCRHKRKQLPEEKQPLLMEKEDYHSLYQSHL

NCCCC(=O)O [A, gamma aminobutyric acid]
Concentration from which results on ratio melanine/proteins are statistically significant (normal human melanocytes [1]; Step 1, 72 h): 0.1%
Ratio Melanine Proteins (% of the controls), Mean (normal human melanocytes [1]; Step 1, A 0.001% (w/v), 72 h, mean): 101.9 % of the controls
Ratio Melanine Proteins (% of the controls) (normal human melanocytes [1]; Step 1, A 0.001% (w/v), 72 h, single values): 98.8 % of the controls and 108.6 % of the controls and 98.3 % of the controls
Ratio Melanine Proteins (% of the controls), Mean (normal human melanocytes [1]; Step 1, A 0.01% (w/v), 72 h, mean): 96.6 % of the controls
Ratio Melanine Proteins (% of the controls) (normal human melanocytes [1]; Step 1, A 0.01% (w/v), 72 h, single values): 87.0 % of the controls and 101.8 % of the controls and 101.1 % of the controls
Ratio Melanine Proteins (% of the controls), Mean (normal human melanocytes [1]; Step 1, A 0.1% (w/v), 72 h, mean): 74.0* % of the controls
Ratio Melanine Proteins (% of the controls) (normal human melanocytes [1]; Step 1, A 0.1% (w/v), 72 h, single values): 74.3 % of the controls and 76.4 % of the controls and 74.2 % of the controls and 71.3 % of the controls
Intra cellular content of melanine in the cultured cells, result in words (normal human melanocytes [1]; cultured normal human melanocytes): clear decrease
Inhibiting activity on tyrosinase, result in words (tyrosinase): inhibiting activity on tyrosinase
Dose from which a cytotoxic effect is detected (less than 80% of the viable cells still present) (normal human melanocytes [2]): 0.5%

CC(O)C(=O)O (stereo not shown) [E, lactic acid]
Cytotoxicity, result in words (normal human melanocytes [2]): clearly cytotoxic
Dose from which a cytotoxic effect is detected (less than 80% of the viable cells still present) (normal human melanocytes [2]): 0.03%
Percentage of viability (vs controls), Mean (normal human melanocytes [2]; 0.003 % (v/v)): 80.8%
Percentage of viability (vs controls), Mean (normal human melanocytes [2]; 0.03 % (v/v)): 73.2%
Percentage of viability (vs controls), Mean (normal human melanocytes [2]; 0.075 % (v/v)): 70.8%
Percentage of viability (vs controls), Mean (normal human melanocytes [2]; 0.15 % (v/v)): 65.9%
Percentage of viability (vs controls), Mean (normal human melanocytes [2]; 0.3 % (v/v)): 6.2%
Percentage of viability (vs controls), Mean (normal human melanocytes [2]; 0.75 % (v/v)): 2.4%
Percentage of viability (vs controls), Mean (normal human melanocytes [2]; 1.5 % (v/v)): 0.2%
Percentage of viability (vs controls), Mean (normal human melanocytes [2]; 3 % (v/v)): 0.8%

O=c1cc(CO)occ1O [Kojic Acid, Kojic acid]
Ratio melanine/Proteins (% of the controls), Mean (normal human melanocytes [1]; Step 1, Kojic Acid 250 μM in DMSO, 72 h, mean): 77.40* % of the controls
% of the controls (mean ratio melanine/proteins, controls = 100) (normal human melanocytes [1]; Step 2, Kojic Acid 250 μM, 72 h): 84.5 % of the controls
Ratio melanine/Proteins (% of the controls), Mean (normal human melanocytes [1]; Step 2, Kojic Acid 250 μM, 72 h, mean (controls mean 119.2)): 100.8* % of the controls
Ratio melanine/Proteins (% of the controls) (normal human melanocytes [1]; Step 2, Kojic Acid 250 μM, 72 h, single values): 106.3 % of the controls and 93.2 % of the controls and 102.8 % of the controls and 94.1 % of the controls and 97.9 % of the controls
Decrease of the intra cellular content of melanine in the culture cells (normal human melanocytes [1]; Step 2, Kojic acid at 250 μM, 72 h, p<0.05): 15.5%
